For this experiment, the target named is T1, (S)-2-HADH from P. aeruginosa NUST (Pseudomonas aeruginosa, UniProt R9RKA7).
T1 construct: synthetic gene in pET28b, E. coli BL21(DE3); resting cells; ~42 kDa on SDS-PAGE; FMN flavoprotein; strain also misprinted NSUT
T1 sequence (R9RKA7 1-393): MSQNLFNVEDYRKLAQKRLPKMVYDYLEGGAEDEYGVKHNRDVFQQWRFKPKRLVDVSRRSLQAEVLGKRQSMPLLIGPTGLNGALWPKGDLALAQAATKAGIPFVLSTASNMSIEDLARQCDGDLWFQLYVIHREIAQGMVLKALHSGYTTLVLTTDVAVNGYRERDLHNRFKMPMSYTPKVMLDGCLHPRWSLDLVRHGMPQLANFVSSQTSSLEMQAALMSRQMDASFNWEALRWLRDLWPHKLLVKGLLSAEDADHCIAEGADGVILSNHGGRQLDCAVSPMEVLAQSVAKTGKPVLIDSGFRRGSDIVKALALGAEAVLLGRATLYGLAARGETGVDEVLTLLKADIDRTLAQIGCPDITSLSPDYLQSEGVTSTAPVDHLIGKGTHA
In words: apoenzyme reactivation. Format: biochemical. The following applies: flavin removal, then addition of FMN.

As to `Cc1cc2nc3c(=O)[nH]c(=O)nc-3n(C[C@H](O)[C@H](O)[C@H](O)COP(=O)(O)O)c2cc1C` [FMN], the apoenzyme reactivation entry is listed as “The activity of the apoenzyme was partly reactivated by the addition of FMN”.

The values above are taken from paper PMC5034429, “Enantioselective cascade biocatalysis for deracemization of 2-hydroxy acids using a three-enzyme system” (Microbial Cell Factories, 2016).
